From BindingDB's records for doi:10.7270/Q25D8QFV (Burnham Center For Chemical Genomics, 2012)

What follows are compounds tested against T1, Mitochondrial import inner membrane translocase subunit TIM23 (Saccharomyces cerevisiae (strain ATCC 204508 / S288c), UniProt P32897) (assay: tim23-1 mutant yeast growth inhibitors, SAR follow-up, luminescence, S. cerevisiae (AID 602375)).
T1 sequence (P32897 whole entry): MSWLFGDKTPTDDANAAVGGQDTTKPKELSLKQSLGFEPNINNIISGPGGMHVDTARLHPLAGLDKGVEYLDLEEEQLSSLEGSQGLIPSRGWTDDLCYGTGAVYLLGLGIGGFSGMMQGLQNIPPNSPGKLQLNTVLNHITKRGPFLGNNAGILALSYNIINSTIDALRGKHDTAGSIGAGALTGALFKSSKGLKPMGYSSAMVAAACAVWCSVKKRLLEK

Row | SMILES | IC50 [µM]
1 | CCOc1ccc2nc(-n3c(O)c[nH]c3=S)sc2c1 [3-(6-Ethoxy-benzothiazol-2-yl)-2-thioxo-imidazolidin-4-one] | > 99
2 | Cc1c2c(n(Cc3ccco3)c1C)N=CN1C=CS(=O)(=O)NC21 (stereo not given) [8-(furan-2-ylmethyl)-9,10-dimethyl-3,4-dihydropyrrolo[1,2]pyrimido[3,5-b][1,2,4]thiadiazine 2,2-dioxide] | > 99

Now those with a lower IC50, led by results:

Row | IC50 [µM] | SMILES
3 | 50.3 | Cc1ccc2nc(-n3c(O)c[nH]c3=S)sc2c1
4 | 11.2 | C(=CN=Nc1nc2ccccc2[nH]1)Cc1ccccc1 [MLS000390936]
5 | 44.3 | Cc1ccc(C2NN=C(c3ccc(Cl)cc3Cl)S2)cc1 (stereo not given) [MLS-0463404.0001]
